Tested on: CHO
Experiment: Cytotoxicity against CHO cells by MTT assay
Type: cell-based
Details: Cricetulus griseus
For CC(C)(C)n1nnnc1C(c1cccc(Nc2ccnc3cc(Cl)ccc23)c1)N1CCCC1 (stereo not given), the IC50 was 117 µM.

Tested on: not listed separately
Experiment: Oral bioavailability in albino Wistar rat at 10 mg/kg
Type: ADME, organism-based
Details: in vivo
CC(C)(C)n1nnnc1C(c1cccc(Nc2ccnc3cc(Cl)ccc23)c1)N1CCCC1 (stereo not given) showed a bioavailability of 3.3%.

Tested on: not listed separately
Experiment: AUC (infinity) in albino Wistar rat at 1 mg/kg, iv
Type: ADME, organism-based
Set-up: time infinity, dose 1 mg/kg, route intravenous
Details: plasma
For CC(C)(C)n1nnnc1C(c1cccc(Nc2ccnc3cc(Cl)ccc23)c1)N1CCCC1 (stereo not given), the AUC(0-inf) was 63.5 ng·h/mL.

Tested on: not listed separately
Experiment: Cmax in albino Wistar rat at 10 mg/kg, po
Type: ADME, organism-based
Set-up: dose 10 mg/kg, route oral
Details: in vivo
In the case of CC(C)(C)n1nnnc1C(c1cccc(Nc2ccnc3cc(Cl)ccc23)c1)N1CCCC1 (stereo not given), the Cmax is reported as 13.3 ng/mL.

Tested on: not listed separately
Experiment: Tmax in albino Wistar rat at 10 mg/kg, po
Type: ADME, organism-based
Set-up: dose 10 mg/kg, route oral
Details: in vivo
CC(C)(C)n1nnnc1C(c1cccc(Nc2ccnc3cc(Cl)ccc23)c1)N1CCCC1 (stereo not given) gave a Tmax of 15 min.

Tested on: not listed separately
Experiment: AUC (infinity) in albino Wistar rat at 10 mg/kg, po
Type: ADME, organism-based
Set-up: time infinity, dose 10 mg/kg, route oral
Details: plasma
In the case of CC(C)(C)n1nnnc1C(c1cccc(Nc2ccnc3cc(Cl)ccc23)c1)N1CCCC1 (stereo not given), the AUC(0-inf) is reported as 21 ng·h/mL.

Tested on: not listed separately
Experiment: Volume of distribution at steady state in albino Wistar rat at 1 mg/kg, iv
Type: ADME, organism-based
Set-up: dose 1 mg/kg, route intravenous
Details: in vivo, read-out: Vdss
Work on CC(C)(C)n1nnnc1C(c1cccc(Nc2ccnc3cc(Cl)ccc23)c1)N1CCCC1 (stereo not given) yielded a Vd of 12.2 L/kg.

Tested on: not listed separately
Experiment: Half life in albino Wistar rat at 1 mg/kg, iv
Type: ADME, organism-based
Set-up: dose 1 mg/kg, route intravenous
Details: in vivo
Compound CC(C)(C)n1nnnc1C(c1cccc(Nc2ccnc3cc(Cl)ccc23)c1)N1CCCC1 (stereo not given) has a half-life of 51 min.

Tested on: not listed separately
Experiment: Clearance in albino Wistar rat at 1 mg/kg, iv
Type: ADME, organism-based
Set-up: dose 1 mg/kg, route intravenous
Details: in vivo
In the case of CC(C)(C)n1nnnc1C(c1cccc(Nc2ccnc3cc(Cl)ccc23)c1)N1CCCC1 (stereo not given), the clearance is reported as 278 mL/min/kg.

Molecular target: Cytochrome P450 2E1 (Homo sapiens, UniProt P05181)
Sequence (P05181 whole entry): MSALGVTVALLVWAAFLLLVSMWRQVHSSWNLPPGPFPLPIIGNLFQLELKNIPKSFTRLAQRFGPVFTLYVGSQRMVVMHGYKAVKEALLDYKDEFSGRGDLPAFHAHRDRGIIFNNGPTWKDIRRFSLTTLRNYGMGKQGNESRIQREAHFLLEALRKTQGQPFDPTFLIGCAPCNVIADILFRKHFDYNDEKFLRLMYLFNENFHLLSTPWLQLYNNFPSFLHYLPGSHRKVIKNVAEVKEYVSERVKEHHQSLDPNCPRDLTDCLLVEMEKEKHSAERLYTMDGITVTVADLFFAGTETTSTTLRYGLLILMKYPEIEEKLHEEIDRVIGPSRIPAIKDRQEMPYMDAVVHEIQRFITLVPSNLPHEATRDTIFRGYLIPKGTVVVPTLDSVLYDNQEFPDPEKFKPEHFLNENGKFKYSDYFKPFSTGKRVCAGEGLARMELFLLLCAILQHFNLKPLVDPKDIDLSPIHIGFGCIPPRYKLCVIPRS
Experiment: Inhibition of CYP2E1 in human liver microsomes assessed as chlorzoxazone 6-hydroxylation after 20 mins by LC-MS analysis
Type: ADME, Microsome
Details: not given
For CC(C)(C)n1nnnc1C(c1cccc(Nc2ccnc3cc(Cl)ccc23)c1)N1CCCC1 (stereo not given), the IC50 was > 20 µM.

Molecular target: T1, Cytochrome P450 2B6 (Homo sapiens, UniProt P20813)
T1 sequence (P20813 whole entry): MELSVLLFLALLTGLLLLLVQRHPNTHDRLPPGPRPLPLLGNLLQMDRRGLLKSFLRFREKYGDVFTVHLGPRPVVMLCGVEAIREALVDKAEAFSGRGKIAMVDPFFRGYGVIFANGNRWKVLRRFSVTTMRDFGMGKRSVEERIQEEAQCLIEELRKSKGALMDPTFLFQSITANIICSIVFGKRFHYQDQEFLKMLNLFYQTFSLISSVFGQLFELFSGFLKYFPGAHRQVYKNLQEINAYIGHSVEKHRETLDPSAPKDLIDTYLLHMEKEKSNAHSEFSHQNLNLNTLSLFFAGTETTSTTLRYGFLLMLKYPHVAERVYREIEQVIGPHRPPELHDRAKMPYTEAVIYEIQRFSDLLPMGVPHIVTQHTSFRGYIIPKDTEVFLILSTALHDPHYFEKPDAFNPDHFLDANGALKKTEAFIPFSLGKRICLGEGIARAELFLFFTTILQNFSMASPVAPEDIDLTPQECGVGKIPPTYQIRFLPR
Experiment: Inhibition of CYP2B6 in human liver microsomes assessed as bupropion hydroxylation after 20 mins by LC-MS analysis
Type: ADME, Microsome
Details: not given
For CC(C)(C)n1nnnc1C(c1cccc(Nc2ccnc3cc(Cl)ccc23)c1)N1CCCC1 (stereo not given), the IC50 was > 20 µM.

Molecular target: T2, Cytochrome P450 2A6 (Homo sapiens, UniProt P11509)
T2 sequence (P11509 whole entry): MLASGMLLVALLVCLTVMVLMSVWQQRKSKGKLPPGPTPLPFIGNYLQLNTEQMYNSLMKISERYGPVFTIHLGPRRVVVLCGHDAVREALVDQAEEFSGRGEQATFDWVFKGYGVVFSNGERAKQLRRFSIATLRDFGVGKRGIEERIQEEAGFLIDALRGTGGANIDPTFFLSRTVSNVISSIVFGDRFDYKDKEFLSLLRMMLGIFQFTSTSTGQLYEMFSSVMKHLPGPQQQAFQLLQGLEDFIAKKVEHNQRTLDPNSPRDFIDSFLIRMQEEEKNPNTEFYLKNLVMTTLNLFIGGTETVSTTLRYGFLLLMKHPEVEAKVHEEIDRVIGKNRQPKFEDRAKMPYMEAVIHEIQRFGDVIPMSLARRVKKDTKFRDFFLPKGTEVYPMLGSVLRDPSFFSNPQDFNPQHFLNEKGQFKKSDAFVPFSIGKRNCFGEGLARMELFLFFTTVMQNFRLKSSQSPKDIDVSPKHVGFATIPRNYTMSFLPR
Experiment: Inhibition of CYP2A6 in human liver microsomes assessed as coumarin 7-hydroxylation after 20 mins by LC-MS analysis
Type: ADME, Microsome
Details: not given
With CC(C)(C)n1nnnc1C(c1cccc(Nc2ccnc3cc(Cl)ccc23)c1)N1CCCC1 (stereo not given) the IC50 was > 20 µM.

Molecular target: Cytochrome P450 3A4 (Homo sapiens, UniProt P08684)
Sequence (P08684 whole entry): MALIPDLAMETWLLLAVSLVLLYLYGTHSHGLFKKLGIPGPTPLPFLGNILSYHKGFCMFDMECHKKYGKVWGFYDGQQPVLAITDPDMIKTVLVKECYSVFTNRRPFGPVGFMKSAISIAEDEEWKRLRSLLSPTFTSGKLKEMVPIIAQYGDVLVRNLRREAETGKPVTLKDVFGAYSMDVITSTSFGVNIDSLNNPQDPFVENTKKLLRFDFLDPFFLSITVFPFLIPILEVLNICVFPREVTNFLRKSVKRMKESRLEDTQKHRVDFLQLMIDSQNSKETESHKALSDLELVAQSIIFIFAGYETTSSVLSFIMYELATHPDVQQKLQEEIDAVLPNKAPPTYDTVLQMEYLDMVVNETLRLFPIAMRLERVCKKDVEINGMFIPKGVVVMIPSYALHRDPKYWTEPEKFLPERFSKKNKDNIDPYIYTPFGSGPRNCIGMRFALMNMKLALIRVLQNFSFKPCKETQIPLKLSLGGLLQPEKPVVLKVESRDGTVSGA
Experiment: Inhibition of CYP3A4 in human liver microsomes assessed as midazolam 1'-hydroxylation after 20 mins by LCMS analysis
Type: ADME, Microsome
Details: not given
For CC(C)(C)n1nnnc1C(c1cccc(Nc2ccnc3cc(Cl)ccc23)c1)N1CCCC1 (stereo not given), the IC50 was 1.45 µM.

Molecular target: Cytochrome P450 2D6 (Homo sapiens, UniProt P10635)
Sequence (P10635 whole entry): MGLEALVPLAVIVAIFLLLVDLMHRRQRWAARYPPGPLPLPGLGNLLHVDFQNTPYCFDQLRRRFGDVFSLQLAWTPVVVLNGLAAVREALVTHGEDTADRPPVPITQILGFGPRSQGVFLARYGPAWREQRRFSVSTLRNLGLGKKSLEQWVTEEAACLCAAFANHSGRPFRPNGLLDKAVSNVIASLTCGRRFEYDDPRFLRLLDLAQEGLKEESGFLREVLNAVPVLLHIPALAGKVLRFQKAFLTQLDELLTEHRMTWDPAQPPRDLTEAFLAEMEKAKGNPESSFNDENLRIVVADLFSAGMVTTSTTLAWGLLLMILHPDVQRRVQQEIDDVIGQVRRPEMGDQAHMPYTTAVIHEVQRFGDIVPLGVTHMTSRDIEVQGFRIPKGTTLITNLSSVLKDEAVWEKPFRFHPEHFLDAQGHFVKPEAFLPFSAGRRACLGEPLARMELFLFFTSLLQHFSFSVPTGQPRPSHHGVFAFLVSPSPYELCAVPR
Experiment: Inhibition of CYP2D6 in human liver microsomes assessed as bufuralol 1'-hydroxylation after 20 mins by LCMS analysis
Type: ADME, Microsome
Details: not given
For CC(C)(C)n1nnnc1C(c1cccc(Nc2ccnc3cc(Cl)ccc23)c1)N1CCCC1 (stereo not given), the IC50 was 3.46 µM.

Molecular target: Cytochrome P450 2C19 (Homo sapiens, UniProt P33261)
Sequence (P33261 whole entry): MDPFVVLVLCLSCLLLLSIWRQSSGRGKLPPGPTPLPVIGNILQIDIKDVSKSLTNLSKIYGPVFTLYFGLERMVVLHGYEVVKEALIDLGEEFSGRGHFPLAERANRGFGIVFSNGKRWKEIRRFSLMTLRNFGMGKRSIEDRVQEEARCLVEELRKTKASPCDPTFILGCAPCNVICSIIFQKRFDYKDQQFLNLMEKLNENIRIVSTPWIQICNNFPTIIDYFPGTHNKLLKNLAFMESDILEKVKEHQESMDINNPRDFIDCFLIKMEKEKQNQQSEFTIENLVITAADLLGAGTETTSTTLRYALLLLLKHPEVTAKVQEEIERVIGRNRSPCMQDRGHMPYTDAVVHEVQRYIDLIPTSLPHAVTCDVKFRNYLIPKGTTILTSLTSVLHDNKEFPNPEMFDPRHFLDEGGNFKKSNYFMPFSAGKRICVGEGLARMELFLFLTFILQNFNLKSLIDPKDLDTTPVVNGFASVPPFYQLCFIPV
Experiment: Inhibition of CYP2C19 in human liver microsomes assessed as S-mephenytoin 4'-hydroxylation after 20 mins by LCMS analysis
Type: ADME, Microsome
Details: not given
CC(C)(C)n1nnnc1C(c1cccc(Nc2ccnc3cc(Cl)ccc23)c1)N1CCCC1 (stereo not given) gave an IC50 of 13.8 µM.
